According to patent US9724352B2, “Pyrrolo[2,1-F[1,2,4]triazine compounds, preparation methods and applications thereof” (Shanghai Institute of Materia Medica, Chinese Academy of …, priority 2012, dated 2017):

Key:
[1] = tested on: human rhabdomyosarcoma Rh30 cells; assay: Proliferation of Rh30 cells (sulforhodamine B); assay type: cell-based; settings: for IC50: Homo sapiens, Rh30, 72 h, read-out: IC50 against proliferation of Rh30 cells; for inhibitory activity on Rh30 cell proliferation (in words): 72 h
Experimental: Rh30 cells were seeded in a 96-well plate at 3000 cells/well. After the cells adhered, tested compounds at concentration of 10, 3, 1, 0.3, or 0.1 μM were added, and incubated for 72 h. The culture media were discarded and cells were fixed with trichloroacetic acid. After washed with distilled water for five times and dried, sulfonylrhodamine B was added. After washed with 1% glacial acetic acid for five times and dried, trihydroxymethylaminomethane buffer was added. OD value was measured by using a microplate reader at a wavelength of 560 nm.

[2] = tested on: human neuroglioma U87-MG xenograft; assay: Growth of U87-MG xenograft subcutaneously transplanted in nude mouse; assay type: in vivo; settings: for growth of subcutaneously transplanted U87MG xenograft (in words): p.o. once a day for three weeks
Experimental: Well-developed tumors in nude mice were cut into 1.5 mm3 fragments and transplanted s.c. into the right flank of nude mice under sterile conditions. The diameters of subcutaneously transplanted tumours in nude mice were measured with a vernier calipe. […] Control groups were given the same amount of blank solvent, and treatment groups received tested compounds (p.o.). Compounds were administrated once a day for three weeks. Throughout the experiment, the sizes of the tumours were measured twice per week and meanwile the body weights of mice were weighed. The tumour volume (TV) was calculated as follows: TV=½×a×b2, wherein a and b represent the length and width, respectively. The individual relative tumour volume (RTV) was calculated as follows: RTV=Vt/V0, where V0 is the volume at the beginning of the treatment and Vt is the volume measured every time. Evaluation index of antitumor activity was relative tumor proliferation rate T/C (%), the calculation formula of which was as follows: T/C (%)=(TRTV/CRTV)×100%, TRTV:RTV of treatment group; CRTV:RTV of negative control group.

## CN(C)Cc1cc2c(N3CCOCC3)nc(-c3ccc(NC(=O)Nc4ccc(F)cc4)cc3)nn2c1 [Compound I-4, 1-[4-(6-dimethylaminomethyl-4-morpholinopyrrolo[2,1-f][1,2,4]triazin-2-yl)phenyl]-3-(p-fluorophenyl)urea]
[1]
  IC50: 400 nM

## CN(C)Cc1cc2c(N3CCOCC3)nc(-c3ccc(NC(=O)Nc4ccc(C(=O)N(C)C)cc4)cc3)nn2c1 [Compound I-14, 4-(3-(4-(6-((dimethylamino)methyl)-4-morpholinopyrrolo[2,1-f][1,2,4]triazin-2-yl)phenyl)ureido)-N,N-dimethylbenzamide]
[1]
  IC50: 500 nM

## CN(C)Cc1cc2c(N3CCOCC3)nc(-c3cccc(CO)c3)nn2c1 [Compound I-24, (3-(6-((dimethylamino)methyl)-4-morpholinopyrrolo[2,1-f][1,2,4]triazin-2-yl)phenyl)methanol]
[1]
  inhibitory activity on Rh30 cell proliferation (in words): tens of nanomolar
  IC50: 74 nM

## CS(=O)(=O)N1CCN(Cc2cc3c(N4CCOCC4)nc(-c4cnc(NC(=O)Oc5ccccc5)cc4C(F)(F)F)nn3c2)CC1 [Compound I-31, Phenyl (5-(6-((4-(methylsulfonyl)piperazin-1-yl)methyl)-4-morpholinopyrrolo[2,1-f][1,2,4]triazin-2-yl)-4-(trifluoromethyl)pyridin-2-yl)carbamate]
[1]
  IC50: 5060 nM

## CN(C)Cc1cc2c(N3CCOCC3)nc(-c3cccc(CNS(C)(=O)=O)c3)nn2c1 [Compound I-26, N-(3-(6-((dimethylamino)methyl)-4-morpholinopyrrolo[2,1-f][1,2,4]triazin-2-yl)benzyl)methanesulfonamide]
[1]
  IC50: 240 nM

## CN(C)Cc1cc2c(N3CCOCC3)nc(-c3ccc(NC(=O)Nc4ccc(Cl)cc4)cc3)nn2c1 [Compound I-5, 1-[4-(6-dimethylaminomethyl-4-morpholinopyrrolo[2,1-f][1,2,4]triazin-2-yl)phenyl]-3-(p-chlorophenyl)urea]
[1]
  IC50: 1240 nM

## COC(=O)Nc1cc(C(F)(F)F)c(-c2nc(N3CCOCC3)c3cc(CN4CCN(S(C)(=O)=O)CC4)cn3n2)cn1.CS(=O)(=O)O [I-33 (mesylate), Methyl (5-(6-((4-(methylsulfonyl)piperazin-1-yl)methyl)-4-morpholinopyrrolo[2,1-f][1,2,4]triazin-2-yl)-4-(trifluoromethyl)pyridin-2-yl)carbamate mesylate]
[2]; 20 mg/kg p.o. once a day, d0
  Relative tumor proliferation rate T/C: 100.00%
[2]; 20 mg/kg p.o. once a day, d3
  Relative tumor proliferation rate T/C: 84.69%
[2]; 20 mg/kg p.o. once a day, d7
  Relative tumor proliferation rate T/C: 65.90%
[2]; 20 mg/kg p.o. once a day, d10
  Relative tumor proliferation rate T/C: 55.24%
[2]; 20 mg/kg p.o. once a day, d14
  Relative tumor proliferation rate T/C: 37.48%
[2]; 20 mg/kg p.o. once a day, d17
  Relative tumor proliferation rate T/C: 31.92%
[2]; 20 mg/kg p.o. once a day, d21
  Relative tumor proliferation rate T/C: 32.61%
[2]; 50 mg/kg p.o. once a day, d0
  Relative tumor proliferation rate T/C: 100.00%
[2]; 50 mg/kg p.o. once a day, d3
  Relative tumor proliferation rate T/C: 82.76%
[2]; 50 mg/kg p.o. once a day, d7
  Relative tumor proliferation rate T/C: 59.61%
[2]; 50 mg/kg p.o. once a day, d10
  Relative tumor proliferation rate T/C: 54.74%
[2]; 50 mg/kg p.o. once a day, d14
  Relative tumor proliferation rate T/C: 36.93%
[2]; 50 mg/kg p.o. once a day, d17
  Relative tumor proliferation rate T/C: 29.89%
[2]; 50 mg/kg p.o. once a day, d21
  Relative tumor proliferation rate T/C: 25.65%
[2]
  growth of subcutaneously transplanted U87MG xenograft (in words): significantly inhibited the growth

## CN(C)Cc1cc2c(N3CCOCC3)nc(-c3ccc(NC(=O)Nc4cccc(Cl)c4)cc3)nn2c1 [Compound I-6, 1-(3-chlorophenyl)-3-(4-(6-((dimethylamino)methyl)-4-morpholinopyrrolo[2,1-f][1,2,4]triazin-2-yl)phenyl)urea]
[1]
  IC50: 1360 nM

## Cc1ccc(NC(=O)Nc2ccc(-c3nc(N4CCOCC4)c4cc(CN(C)C)cn4n3)cc2)cc1 [Compound I-9, 1-(4-(6-((dimethylamino)methyl)-4-morpholinopyrrolo[2,1-f][1,2,4]triazin-2-yl)phenyl)-3-(p-tolyl)urea]
[1]
  IC50: 990 nM

## C[C@H]1COCCN1c1nc(-c2cnc(N)cc2C(F)(F)F)nn2cc(CN3CCN(S(C)(=O)=O)CC3)cc12 [Compound I-34, (S)-5-(4-(3-methylmorpholino)-6-((4-(methylsulfonyl)piperazin-1-yl)methyl)pyrrolo[2,1-f][1,2,4]triazin-2-yl)-4-(trifluoromethyl)pyridin-2-amine]
[1]
  IC50: 530 nM

## CS(=O)(=O)N1CCN(Cc2cc3c(N4CC5CCC(C4)O5)nc(-c4cnc(N)cc4C(F)(F)F)nn3c2)CC1 [Compound I-29, 5-(4-(8-oxa-3-azabicyclo[3.2.1]octan-3-yl)-6-((4-(methylsulfonyl)piperazin-1-yl)methyl)pyrrolo[2,1-f][1,2,4]triazin-2-yl)-4-(trifluoromethyl)pyridin-2-amine]
[1]
  IC50: 3420 nM

## CCNC(=O)Nc1cc(C(F)(F)F)c(-c2nc(N3CCOCC3)c3cc(CN4CCN(S(C)(=O)=O)CC4)cn3n2)cn1.CS(=O)(=O)O [I-30 (mesylate), 1-Ethyl-3-(5-(6-((4-(methylsulfonyl)piperazin-1-yl)methyl)-4-morpholinopyrrolo[2,1-f] [1,2,4]triazin-2-yl)-4-(trifluoromethyl)pyridin-2-yl)urea mesylate]
[2]; 50 mg/kg p.o. once a day, d0
  Relative tumor proliferation rate T/C: 100.00%
[2]; 50 mg/kg p.o. once a day, d3
  Relative tumor proliferation rate T/C: 67.89%
[2]; 50 mg/kg p.o. once a day, d7
  Relative tumor proliferation rate T/C: 54.35%
[2]; 50 mg/kg p.o. once a day, d10
  Relative tumor proliferation rate T/C: 60.45%
[2]; 50 mg/kg p.o. once a day, d14
  Relative tumor proliferation rate T/C: 42.46%
[2]; 50 mg/kg p.o. once a day, d17
  Relative tumor proliferation rate T/C: 41.64%
[2]; 50 mg/kg p.o. once a day, d21
  Relative tumor proliferation rate T/C: 37.26%
[2]
  growth of subcutaneously transplanted U87MG xenograft (in words): significant inhibitory effects

## CN(C)Cc1cc2c(N3CCOCC3)nc(-c3cccc(CS(C)(=O)=O)c3)nn2c1 [Compound I-25, N,N-dimethyl-1-(2-(3-((methylsulfonyl)methyl)phenyl)-4-morpholinopyrrolo[2,1-f][1,2,4]triazin-6-yl)methanamine]
[1]
  inhibitory activity on Rh30 cell proliferation (in words): tens of nanomolar
  IC50: 39 nM
